Experimental findings from ChEMBL document CHEMBL4184279, “Synthesis, antimicrobial activity and acid dissociation constants of methyl 5,5-diphenyl-1-(thiazol-2-yl)pyrrolidine-2-carboxylate derivatives” (Bioorg Med Chem Lett, 2018) are described below.

SMILES strings stand for the structures. In brackets after ≈: the same amount, converted by molar mass.

One series has as its system Staphylococcus aureus. Put plainly: Antibacterial activity against Staphylococcus aureus ATCC 25925. The class given is functional.
Another series concerns Escherichia coli. The series can be described thus: Antibacterial activity against Escherichia coli. The class given is functional.
The subject of another series is Aeromonas hydrophila. Put plainly: Antibacterial activity against Aeromonas hydrophila ATCC 95080. The class given is functional.
The nature of series [1]: Acid dissociation constant, pKa for NH group of the compound in DMSO-water mixture at 25 +/- 0.1 degC by potentiometric method. The class given is physicochemical.
A further series relates to Candida parapsilosis. Put plainly: Antifungal activity against Candida parapsilosis ATCC 22019 after 48 hrs by microdilution broth method. The class given is functional. Conditions: Lodderomyces parapsilosis, ATCC 22019, 48 h. Background: In broth dilution the organism is exposed to a series of concentrations in liquid medium.
Series [2] in a line: Acid dissociation constant, pKa for OH group of the compound in DMSO-water mixture at 25 +/- 0.1 degC by potentiometric method. The class given is physicochemical.
The nature of series [3]: Acid dissociation constant, pKa for SH group of the compound in DMSO-water mixture at 25 +/- 0.1 degC by potentiometric method. The class given is physicochemical.
Series [4] deals with Mycobacterium tuberculosis. Put plainly: Antimycobacterial activity against Mycobacterium tuberculosis H37Rv after 7 days by REMA. The class given is functional. The conditions noted are these: 168 h.
The next series deals with Nakaseomyces glabratus. The series can be described thus: Antifungal activity against Candida glabrata ATCC 90030 after 48 hrs by microdilution broth method. The class given is functional. The conditions noted are these: ATCC 90030, 48 h.
The next series concerns Candida tropicalis. The series can be described thus: Antifungal activity against Candida tropicalis ATCC 750 after 48 hrs by microdilution broth method. The class given is functional. Conditions: ATCC 750, 48 h.
A further series deals with Acinetobacter baumannii. The series can be described thus: Antibacterial activity against Acinetobacter baumannii ATCC 02026. The class given is functional.
A further series has as its system Bacillus spizizenii. The series can be described thus: Antibacterial activity against Bacillus subtilis ATCC 6633. The class given is functional.

The MIC is the smallest concentration in the dilution series that meets the test's criterion for growth inhibition. Lower therefore signals a more susceptible organism. As to `COC(=O)[C@H]1C[C@@H](C(=O)OC)C(c2ccccc2)(c2ccccc2)N1c1nc(-c2ccccc2)c(C(=O)c2ccccc2)s1`, the MIC in the series with Staphylococcus aureus turned out to be 125 µg/mL (≈ 207 µM); with Escherichia coli, 125 µg/mL (≈ 207 µM); against Aeromonas hydrophila, 250 µg/mL (≈ 415 µM); against Candida parapsilosis it was 62.5 µg/mL (≈ 104 µM); in series [4] it was 15.6 µg/mL (≈ 25.9 µM); against Nakaseomyces glabratus, 31.2 µg/mL (≈ 51.8 µM). Further, the MIC against Candida tropicalis was determined as 62.5 µg/mL (≈ 104 µM); in the series with Acinetobacter baumannii, 250 µg/mL (≈ 415 µM); with Bacillus spizizenii, 125 µg/mL (≈ 207 µM). Also, the pKa in series [1] amounted to 2.99; in series [2] it was 9.67; in series [3], 6.58.
